Structures are written as SMILES.

Here are results for two compounds from patent US5888781A, “Method for increasing the hydrolytic activity of starch hyrdolases” (University of Maryland Baltimore County, priority 1997, dated 1999).

In experiment [1] the target is T1, GA from A. awamori (Aspergillus awamori, UniProt P69327).
T1 construct: made in house; host or cells: Saccharomyces cerevisiae
As to the kind of experiment: GA activity assay: maltose hydrolysis in the presence of cosolvents. Format: biochemical. The conditions noted are these: maltose hydrolysis by GA at 45° C.; for Corresponding cosolvent concentration at maximum percent increase in kcat: 0.05M sodium acetate buffer pH 4.5, 20 mM maltose; for kcat: at cosolvent concentration of maximum increase. The procedure:
GA was produced in Saccharomyces cerevisiae and obtained, as described by Natarajan et al, Biochem., 35:3050-3058 (1996).
Kinetic assays were performed either at 45° C. or at 60° C., in 0.05M sodium acetate buffer (pH 4.5), using a substrate, i.e., maltose, concentration of 20 mM. The substrate concentration was sufficiently above the Km value so that the measured rate was directly proportional to kcat. The enzyme concentrations used in the reaction mixtures were 35 μg/ml and 3.5 μg/ml for the 45° C. and 60° C. experiments, respectively.
(§1) The cosolvent solutions were prepared from a concentrated cosolvent mixture by dilution to the final concentrations ranging from 0-90% (w/v), into the appropriate reaction buffer solution. The buffer solutions were titrated for pH prior to addition of cosolvent. All of the solutions were equilibrated at 45° C. (or 60° C.) in a water bath, and the reaction was started by the addition of a 25 μl aliquot of enzyme. Reaction aliquots were removed at various times, and the reaction was stopped by the addition of 2.5M Trizma base (pH 7.0). All of the reactions were performed in duplicate. The rates were determined by measuring the concentration of the released glucose by the glucose oxidase method, using the Glucose Oxidase Kit (Sigma), as modified for microtiter plate assays, at OD450 nm (Fox et al, Anal. Biochem., 195:93-96 (1991); and Palcic et al, Carbohydr. Res., 250:87-92 (1993)), and using an EL 340 biokinetics reader (BIOTEK Instruments; Winooski, Vt.).
Glucose standards at each of the various cosolvent concentrations were run parallel to each reaction so that any effect of the cosolvents on the glucose assay could be subtracted out.

The target of experiment [2] is T1, GA from A. awamori. As to the kind of experiment: Effect of cosolvent solution viscosity on kcat of GA (maltose hydrolysis). The conditions noted are these: maltose hydrolysis at 45° C.; for Effect of solution viscosity on kcat (in words): PEG200 viscosities up to 14 cp, PEG8000 up to 18 cp. Format: biochemical. As to the method: Kinetic assays were performed either at 45° C. or at 60° C., in 0.05M sodium acetate buffer (pH 4.5), using a substrate, i.e., maltose, concentration of 20 mM. The substrate concentration was sufficiently above the Km value so that the measured rate was directly proportional to kcat.
as §1
All buffers of various cosolvent concentrations were filtered before use. Viscosity and density measurements were performed using an Ostwald Capillary Viscometer at 45° C. The densities of the various buffer solutions were obtained by replicate weighing of one milliliter volumes of buffer.
As discussed above, if product release is the rate-limiting step in the GA mechanism, there should be a dependence of the kcat value on solution viscosity. If a conformational change associated with the product release is limiting the reaction rate, the relationship between kcat and viscosity, μ, should be μ^-δ (Demchenko et al, supra). This relationship is based on the Kramers' theory (Kramers, supra) which postulates that diffusional motion in a random field controls the rate at which the enzyme complex will pass over the activation energy barrier. […] This relationship is based on the theory that the dissociating product must have a certain minimal kinetic energy to escape some characteristic volume in the enzyme active site. Once the product has exited from the characteristic volume, the product has a very low probability of reassociating. If the former relationship is valid, plots of ln(kcat) vs ln(μ) for the various cosolvents should be linear with a slope of -δ, whereas if the latter is true plots of ln(kcat) vs (μ)^2 should be linear with a slope corresponding to -γ.

T1 sequence (P69327 25-640): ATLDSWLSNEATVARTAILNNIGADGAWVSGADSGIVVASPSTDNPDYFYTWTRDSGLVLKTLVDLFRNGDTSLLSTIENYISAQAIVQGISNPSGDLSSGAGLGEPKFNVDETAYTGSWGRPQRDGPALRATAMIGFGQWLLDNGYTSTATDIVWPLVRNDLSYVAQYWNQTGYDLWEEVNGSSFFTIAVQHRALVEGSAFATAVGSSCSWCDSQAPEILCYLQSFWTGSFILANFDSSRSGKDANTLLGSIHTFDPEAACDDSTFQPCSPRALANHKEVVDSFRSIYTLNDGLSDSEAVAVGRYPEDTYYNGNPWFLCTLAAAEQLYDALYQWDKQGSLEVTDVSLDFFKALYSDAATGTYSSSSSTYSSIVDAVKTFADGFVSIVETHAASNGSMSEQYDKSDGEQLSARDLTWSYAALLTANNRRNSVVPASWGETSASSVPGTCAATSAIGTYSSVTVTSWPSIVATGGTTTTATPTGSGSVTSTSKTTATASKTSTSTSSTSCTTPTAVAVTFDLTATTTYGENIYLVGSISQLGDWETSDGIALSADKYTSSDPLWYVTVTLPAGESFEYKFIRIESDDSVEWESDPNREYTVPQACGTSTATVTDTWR

As for `OCCO` [EG, ethylene glycol], on GA from A. awamori [1], the “Cosolvent concentration of peak (largest) increase in kcat” value was “around 50 % (w/v)”, the “Maximum percent increase in kcat over control value without cosolvent” value came out at 32%, the “Corresponding cosolvent concentration at maximum percent increase in kcat” value is recorded as 50% and the kcat was found to be 12.4 s⁻¹. Besides, on GA from A. awamori [2], the “Solution viscosity at which GA activity starts to decrease significantly” value is “around 3.5 cp” and the “Effect of solution viscosity on kcat (in words)” value is listed as “substantially decreased kcat”. Further, the “Slope of plot of ln(kcat) vs (μ)^2” value at GA from A. awamori [2] (FIGS. 4A-4G) is recorded as -0.06.

As to `OCC(O)CO` [Glycerol, glycerol, reference compound], at GA from A. awamori [1], the “Maximum percent increase in kcat over control value without cosolvent” value turned out to be 11%, the “Corresponding cosolvent concentration at maximum percent increase in kcat” value came to 1.0% and the kcat is 10.4 s⁻¹. For the same compound, the “Effect of cosolvent on kcat (in words)” value on GA from A. awamori [1] (FIGS. 1A-1G) is reported as “only a minor increase in kcat”. At GA from A. awamori [2], the “Solution viscosity at which GA activity starts to decrease significantly” value is “around 3.5 cp” and the “Effect of solution viscosity on kcat (in words)” value was “substantially decreased kcat”.

As usually defined, the kcat is the number of substrate molecules converted per active site and unit of time at saturation.
